Columns and labels:
[1] = target: T1, NAD+ probe NADS1.2 (mScarlet mutant-LigA mutant-cpNluc mutant fusion), SEQ ID NO. 7; LigA mutant 1 (DNA ligase LigA mutant), SEQ ID NO. 3 (Enterococcus faecalis, UniProt Q837V6, D286N/K120L/R163D/R68N); test: Response of NAD+ molecular probe NADS1.2 to NAD+ and different NAD+ analogs; type: binding; details: for response of probe / dynamic range of probe response: NADS1.2, NAD+ analogs, 590/440 nm ratio; for dynamic range of probe response: in words
T1 construct: purified BRET probe NADS1.2
T1 sequence (Q837V6 6-317 R68N/K120L/R163D/D286N): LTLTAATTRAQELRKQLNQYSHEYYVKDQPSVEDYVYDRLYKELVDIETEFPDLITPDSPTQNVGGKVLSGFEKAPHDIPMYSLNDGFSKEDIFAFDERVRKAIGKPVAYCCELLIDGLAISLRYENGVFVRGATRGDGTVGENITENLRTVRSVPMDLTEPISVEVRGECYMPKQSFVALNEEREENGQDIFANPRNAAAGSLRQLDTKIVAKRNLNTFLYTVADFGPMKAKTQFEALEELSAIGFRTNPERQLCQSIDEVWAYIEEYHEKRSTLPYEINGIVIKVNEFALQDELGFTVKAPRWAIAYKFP

[2] = tested on: NAD+ molecular probe NAD1.2; test: Response of NAD+ molecular probe to different NAD+ analogs (590/440 ratio titration); type: biochemical; details: FIG. 4
Method: (2) Add 80 μL of probe solution, 10 μL of NAD+ solution or 10 μL of NAD+ analogs solution, and 10 μL of bioluminescent substrate solution into the white 96-well elisa plate, blowing, suction, and mix immediately several times (at least 8 times) with multi-channel pipette; use Flex Station3 multifunctional microplate reader to read the light intensity values at the wavelengths of 440 nm and 590 nm under the luminescence mode, and monitor the values for 5 min continuously, and the average receptor-to-donor luminescence ratio is calculated for this time period.

[3] = target: T2, NAD+ probe NADS2.0 (mNeoGreen mutant-LigA mutant-cpNluc mutant fusion), SEQ ID NO. 9; LigA mutant SEQ ID NO. 3 (Enterococcus faecalis, UniProt Q837V6, D286N/K120L/R163D/R68N); test: NAD+ titration of purified BRET probe NADS2.0; type: binding; details: 515/440 nm light intensity ratio
T2 construct: purified BRET probe NADS2.0
T2 sequence (Q837V6 6-317 R68N/K120L/R163D/D286N): as above
Source text: The sequence of NADS^2.0 is shown as SEQ ID NO. 9
mNeoGreen mutant-LigA mutant-cpNluc mutant
The sequence of LigA1 mutant is shown as SEQ ID NO.

[4] = target: T3, NAD+ probe NADS3.0 (mScarlet mutant-LigA mutant-mNeoGreen mutant fusion), SEQ ID NO. 11; LigA mutant 1 SEQ ID NO. 3 (Enterococcus faecalis, UniProt Q837V6, D286N/K120L/R163D/R68N); test: NAD+ titration of purified FRET probe NADS3.0; type: binding; details: 585/515 nm ratio, excitation 470 nm
T3 construct: purified FRET probe NADS3.0
T3 sequence (Q837V6 6-317 R68N/K120L/R163D/D286N): as above
Source text: The sequence of NADS3.0 is shown as SEQ ID NO. 11
mScarlet mutant-LigA mutant-mNeoGreen mutant
The sequence of LigA mutant 1 is shown as SEQ ID NO.

[5] = tested on: HEK293 stably transfected cell line; test: Intracellular NAD+ change in HEK293 cell line stably expressing probe NADS1.0 (590/440 emitted light ratio); type: cell-based; details: final concentration 10 nM, 24 h treatment
Method: The NAD+ molecular probe provided by the invention can detect changes in the concentration of NAD+ molecules in cells. The coding gene of this probe (NADS1.0) is cloned into the pCDH-CMV-MCS-EF1-Neo vector, and the HEK293 stably transfected cell line is prepared using lentiviral method. […] After 24 h of treatment with the compounds, the DMEM medium (high sugar, phenol red free) is changed to fresh DMEM medium (high sugar, phenol red free, bioluminescent substrate diluted by 1,000-fold) with bioluminescent substrate. The emitted light intensity at 590 nm and 440 nm is measured using Flex Station3 multifunctional microplate reader. According to the detection principle of the probe, the ratio of emitted light intensity at 590 nm and 440 nm indicates the NAD+ concentration in living cells. It is found in the detection that the ratio decreased in cells treated with FK866, indicating a decrease in intracellular NAD+ concentration, while in the NRH-treated cells, the ratio increased, indicating an increase in intracellular NAD+ concentration.

NC(=O)C1=CN([C@@H]2O[C@H](COP(=O)(O)OP(=O)(O)OC[C@H]3O[C@@H](n4cnc5c(N)ncnc54)[C@H](OP(=O)(O)O)[C@@H]3O)[C@@H](O)[C@H]2O)C=CC1 [NADPH]
response of probe [1]: did not respond

NC(=O)c1ccc[n+]([C@@H]2O[C@H](COP(=O)([O-])OP(=O)(O)OC[C@H]3O[C@@H](n4cnc5c(N)ncnc54)[C@H](OP(=O)(O)O)[C@@H]3O)[C@@H](O)[C@H]2O)c1 [NADP+]
dynamic range of probe response [1]: small dynamic range
dynamic range of the probe response to the analog [2]: small

NC(=O)C1=CN([C@@H]2O[C@H](COP(=O)(O)OP(=O)(O)OC[C@H]3O[C@@H](n4cnc5c(N)ncnc54)[C@H](O)[C@@H]3O)[C@@H](O)[C@H]2O)C=CC1 [NADH]
EC50 [1]: > 1000 µM

NC(=O)c1cccnc1 [NAM]
response of probe [1]: did not respond

NC(=O)c1ccc[n+]([C@@H]2O[C@H](COP(=O)([O-])O)[C@@H](O)[C@H]2O)c1 [NMN]
dynamic range of probe response [1]: small dynamic range
dynamic range of the probe response to the analog [2]: small

NC(=O)c1ccc[n+]([C@@H]2O[C@H](COP(=O)([O-])OP(=O)(O)OC[C@H]3O[C@@H](n4cnc5c(N)ncnc54)[C@H](O)[C@@H]3O)[C@@H](O)[C@H]2O)c1 [NAD+]
dynamic range [3]: 1.8 fold
dynamic range [4]: 1.21 fold

O=C(/C=C/c1cccnc1)NCCCCC1CCN(C(=O)c2ccccc2)CC1 [FK866]
ratio of emitted light intensity at 590 nm and 440 nm (indicates intracellular NAD+ concentration) [5]: decreased
